What was measured:
[1] = system: skeletal muscle tone of conscious mice; assay: Skeletal muscle tone in mice in the inclined screen test; assay type: in vivo, mouse (NMRI); conditions: Mus musculus, ip, single substance, read-out: ED50, decrease of skeletal muscle tone (inclined screen test)
Procedure: NMRI mice weighing 22-24 g were kept in groups of four under standard conditions (temperature 22° C., humidity 40-60%) without any restriction in food and water. Illumination was provided from 6 a.m. to 6 p.m. All the experiments were approved by the local animal health committee which was responsible for the protection and proper use of experimental animals.
What is termed the “30 degrees inclined screen test” (Simiand et al., Arch Int Pharmacodyn Ther 1989; 297:272-85) was used as a pharmacological model which enables predictions to be made regarding muscle-relaxing properties. The inclined screen consists of a wooden frame containing a wire gauze screen which can be inclined at any arbitrary angle (in this present case: […]). The lower part of the screen is located 15 cm above the table. The animals are placed on the inclined screen and their ability to remain on the inclined screen is observed over a period of 30 s. The number of animals which fall from the screen is counted and the proportion it represents of the total number in each group is calculated. The active compounds were prepared freshly every day and were administered simultaneously i.p. at various doses, at 1 h before beginning the experiments, for analyzing the skeletal muscle tone.
The statistical analysis of the differences between the calculated and measured values were performed by means of a one-way ANOVA. […]

[2] = system: reserpine-induced skeletal muscle rigidity; assay: Muscle-relaxing effect on reserpine-induced muscular rigidity in rats; assay type: in vivo, rat (male Sprague-Dawley); conditions: Rattus norvegicus, ip, read-out: ED50, reduction of reserpine-induced skeletal muscle rigidity
Procedure: Male Sprague-Dawley rats weighing 200-220 g were kept in groups of two under standard conditions (temperature 22° C., humidity 40-60%) without any restriction in food or water. Illumination was provided from 6 a.m. to 6 p.m. The experiments were approved by the local animal health committee which was responsible for the protection and proper use of experimental animals.
The experimental approach has already been described in detail (Nickel et al. Arzn Forsch/Drug Res 1997; 47:1081-6). In brief, the rigidity of the skeletal muscle was measured by consecutively measuring the resistance of the flexor and extensor muscles which act in opposition when stretching and bending the foot in the joint. The pressure differences which were generated by the movement of the foot were recorded continuously. The signals were analyzed using a PC program which calculated the resistances of the flexor and extensor at the foot over periods of 10 min.
The active compounds were prepared freshly every day and were administered simultaneously i.p. at various doses 16 h after the reserpine injection (2 mg/kg, intraperitoneally).
The statistical analysis of the differences between the calculated and measured values was performed by means of a one-way. ANOVA. Asterisks (*) denote the significant level p<0.01.

Compound: CCOC(=O)Nc1ccc(NCc2ccc(F)cc2)nc1N [flupirtine]
- ED50 [1]: 10.8 mg/kg
- ED50 [2]: 6.45 mg/kg

Compound: Cc1ccc(C(=O)C(C)CN2CCCCC2)cc1 (stereo not shown) [tolperisone]
- ED50 [1]: 51 mg/kg
- ED50 [2]: 32.4 mg/kg

From patent publication US8557851B2, “Combinations of flupirtine and sodium channel inhibiting substances for treating pains” (MEDA Pharma GmbH & Co. KG, priority 2003, dated 2013)
